# Assay results: patent US8961930B2, “Isatin derivatives for use as in vivo imaging agents” (Imperial Innovations Limited, priority 2008, dated 2015)
# Experiments:
# [1] = system: caspase-3 cognate target poly(ADP-ribose) polymerase (PARP); experiment: Cellular activity: PARP cleavage immunoblot in cisplatin-treated RIF-1 cells; type: cell-based, murine; conditions: 15 min pre-incubation, cisplatin 100 μM 48 h
# Source text: The Δ-PARP immunoblot band corresponds to the endogenous 89 kDa large fragment of PARP resulting from caspase 3 cleavage. α-tubulin was used as a loading control.
# [2] = system: LNM35 cells; experiment: In vitro [^18F]11 uptake in LNM35 cells; type: cell-based, human; conditions: 100 μM CDDP or VP-16, 60 min uptake
# Source text: The human ovarian carcinoma cell lines PEO1/4 were established and characterised as described in Wolf C. R. et al.^22 and Langdon S. P. et al^23. Briefly, PEO1/4 cells were derived from the malignant ascites of a patient with a recurrent mucinous ovarian adenocarcinoma, before (PEO1) and after (PEO4) the onset of a clinical resistance to cisplatin chemotherapy in this patient. The radiation-induced murine fibrosarcoma (RIF-1) tumour cell line was originally characterised by Twentyman P. R. et al.^20. The LNM35 tumour cells are a highly lymphogenous metastatic subline of the human large pulmonary carcinoma NCI-H460 cell line, as described in Kozaki K. et al.^24. […]
# Cells were plated in triplicate in 12-well plates 2 or 3 days prior to the experiments and treated with the antineoplastic platinum-derived drug Cisplatin, 5-FU, the protein synthesis inhibitor cycloheximide (CHX) or the topoisomerase inhibitor etoposide (VP-16) (Sigma, UK) or corresponding vehicle at the indicated concentration and time. […] 260 μL of each sample were transferred in counting tubes and Fluorine-18 radioactivity was immediately determined using a Packard Cobra II gamma counter (Perkin Elmer, UK). […] BCA Protein assay (Pierce, UK) was performed for all samples and datas are normalized and expressed as CCPMA or RLU (Relative Light Unit)/mg of protein.
# [3] = system: RIF-1 xenograft; experiment: In vivo [^18F]11 biodistribution and PET imaging, RIF-1 xenograft; set-up: species or system mice; conditions: for 60 min biodistribution, Bone / 60 min biodistribution, Kidney / 60 min biodistribution, L. Intestine / 60 min biodistribution, Liver / 60 min biodistribution, Lung / 60 min biodistribution, Muscle / 60 min biodistribution, S. Intestine / 60 min biodistribution, Spleen / 60 min biodistribution, Tumour: RIF-1
# Source text: In vivo tumour models were established by subcutaneous injection of PEO1/4 (10×10^6 cells, with v/v matrigel, BD Biosciences, Oxford, UK), RIF-1 (5×10^5 cells) and LNM35 (1×10^6 cells) on the back of 6-8 weeks old female nu/nu-BALB/c or male C3H/hej mice (Harlan, Bicester, Oxfordshire, UK). Tumour growth was monitored every two days using electronic callipers, and tumour volume estimated using (π/6)×L×W×D (L=length, W=width and D=depth). All animal work was done by licensed investigators in accordance with the United Kingdom's “Guidance on the Operation of Animals (Scientific Procedures) Act 1986” (HMSO, London, United Kingdom, 1990) and in full compliance with government regulations and guidelines on the welfare of animals in experimental neoplasia.
# For biodistribution studies, tumour-bearing mice were treated with 10 mg/kg cisplatin or vehicle for 24 h, anesthetized with isofluorane/O2/N2O and injected i.v. in the lateral tail vein with ˜100 μCi [^18F]11 for the indicated time. The different tissues were removed, weighted and placed in counting tubes for immediate Fluorine-18 radioactivity counting.
# Tumour-bearing mice treated with Cisplatin (10 mg/kg for 24 h) or vehicle were scanned on a dedicated small animal PET scanner (quad-HIDAC; Oxford Positron Systems, Weston-on-the-Green, United Kingdom). Anesthetized animals were placed within a thermostatically controlled bed and positioned prone within the scanner. The bed was calibrated to provide a mouse rectal temperature of ˜37° C. A bolus injection of [^18F]11 (˜100 μCi) was given intravenously (i.v.) via the tail vein cannula and scanning commenced. Dynamic emission scans were acquired in list-mode format over 60 minutes. The acquired data were then sorted into 0.5-mm sinogram bins and 19 time frames (0.5×0.5×0.5 mm voxels; 4×15, 4×60, and 11×300 seconds) for image reconstruction, which was done by filtered back projection using a two-dimensional Hamming filter (cutoff 0.6). The image data-sets obtained were transferred to a SUN workstation (Ultra 10; SUN Microsystems, Santa Clara, Calif.) and visualized using the Analyze software (version 6.0; Biomedical Imaging Resource, Mayo Clinic, Rochester, Minn.). Cumulative images of the dynamic data composed of 0 to 1 minute after injection and 30 to 60 minutes after injection were used for visualization of radiotracer uptake and to define the regions of interest (ROI). The count densities were averaged for each ROI at each of the 19 time points to obtain a time versus radioactivity curve (TAC) for the ROIs. Tumour TAC was normalized to that of heart at each of the time points to obtain the normalized uptake value (NUV). The [^18F]9 data from […] were used as internal input function for normalizing tumour data. […] FRT is a useful variable in that it indicates the proportion of radiotracer delivered to the tumour that is retained. It therefore normalizes tumor [^18F]9 uptake to delivery.
# RIF-1 tumor was treated with vehicle (50% DMSO) or CDDP (10 mg/kg single dose). The [^18F]-derived radioactivity levels at 60 min post radiotracer injection were analysed and expressed as a ratio to that of blood. […] 1.5-fold increase in uptake of [^18F]11 for treated mice over vehicle treated mice. Data are mean±SEM and n=8 mice per group.
compound,measurement,setting,value
"O=C1C(=O)N(Cc2cn(CCF)nn2)c2ccc(S(=O)(=O)N3CCC[C@H]3COc3ccc(F)cc3F)cc21 [Compound 11, (S)-1-((1-(2-Fluoroethyl)-1H-[1,2,3]-triazol-4-yl)methyl)-5-(2(2,4-difluorophenoxymethyl)-pyrrolidine-1-sulfonyl)isatin]",effect on induction of cleaved PARP by cisplatin induced apoptosis,[1],disrupted the induction of caspase-3 cognate target PARP by cisplatin induced apoptosis
"O=C1C(=O)N(Cc2cn(CC[18F])nn2)c2ccc(S(=O)(=O)N3CCC[C@H]3COc3ccc(F)cc3F)cc21 [[^18F]11, (S)-1-((1-(2-Fluoroethyl)-1H-[1,2,3]-triazol-4-yl)methyl)-5-(2(2,4-difluorophenoxymethyl)-pyrrolidine-1-sulfonyl)isatin]",[^18F]11 uptake in drug-treated cells compared to control,[2],significantly increased
same,"60 min biodistribution, Bone",[3]; CDDP treated,1.78 ± 1.72
same,"60 min biodistribution, Bone",[3]; Control,1.06 ± 0.49
same,PET image: uptake in the tumour,"[3]; CDDP-treated mouse, RIF-1 xenograft, 30-60 min",significant uptake
same,"60 min biodistribution, Kidney",[3]; CDDP treated,5.50 ± 2.59
same,"60 min biodistribution, Kidney",[3]; Control,8.49 ± 2.00
same,"60 min biodistribution, L. Intestine",[3]; CDDP treated,2.88 ± 1.52
same,"60 min biodistribution, L. Intestine",[3]; Control,2.66 ± 0.67
same,"60 min biodistribution, Liver",[3]; CDDP treated,10.58 ± 4.64
same,"60 min biodistribution, Liver",[3]; Control,11.36 ± 2.39
same,"60 min biodistribution, Lung",[3]; CDDP treated,3.23 ± 0.43
same,"60 min biodistribution, Lung",[3]; Control,4.47 ± 1.00
same,"60 min biodistribution, Muscle",[3]; CDDP treated,1.09 ± 0.54
same,"60 min biodistribution, Muscle",[3]; Control,1.76 ± 1.33
same,"increase in tumour uptake (ratio to blood), treated over vehicle treated mice","[3]; RIF-1 tumour, CDDP 10 mg/kg single dose, 60 min post injection",~1.5 fold
same,"60 min biodistribution, S. Intestine",[3]; CDDP treated,11.08 ± 6.00
same,"60 min biodistribution, S. Intestine",[3]; Control,14.93 ± 12.68
same,"60 min biodistribution, Spleen",[3]; CDDP treated,1.85 ± 0.76
same,"60 min biodistribution, Spleen",[3]; Control,1.85 ± 0.19
same,"60 min biodistribution, Tumour",[3]; CDDP treated,1.31 ± 1.04
same,"60 min biodistribution, Tumour",[3]; Control,0.96 ± 0.10
